These results are taken from ChEMBL document CHEMBL5465560, “Selectivity Literature for EUbOPEN Chemogenomic Library” (2024).

Assay [1] has as its target Acylglycerol kinase, mitochondrial (Homo sapiens) (UniProt Q53H12). Put plainly: Selectivity interaction (Kinase panel (KiNativ target engagement assay in Jurkat cells)) EUB0001635a AGK. The class given is cell-based. To be noted: Selectivity number of off-targets 0.0, Selectivity number of targets 233.0, Source Knowledge https://www.sciencedirect.com/science/article/pii/S2451945619300674?via%3Dihub, at 1 µM.

Assay [2] has as its target Dual specificity mitogen-activated protein kinase kinase 1 (Homo sapiens, UniProt Q02750). Put plainly: Selectivity interaction (SelectScreen profiling (Invitrogen)) EUB0000607a MAP2K1. The conditions noted are these: at 2 µM.
Assay [3] concerns Tyrosine-protein kinase ABL1 (Homo sapiens), P00519 [Q252H]. To be noted: at 10 µM.
In assay [4] the target is Macrophage colony-stimulating factor 1 receptor (Homo sapiens) (UniProt P07333). The experiment in a line: Selectivity interaction (KinomeScan (DiscoverX)) EUB0000666a CSF1R. The conditions noted are these: at 10 µM.
Assay [5] deals with High affinity nerve growth factor receptor (Homo sapiens, UniProt P04629). Put plainly: Selectivity interaction (KinomeScan (DiscoverX)) EUB0000229b NTRK1. The conditions noted are these: at 10 µM.
Assay [6] addresses T1, Mitogen-activated protein kinase kinase kinase 7 (Homo sapiens) (UniProt O43318).
T1 sequence (whole entry): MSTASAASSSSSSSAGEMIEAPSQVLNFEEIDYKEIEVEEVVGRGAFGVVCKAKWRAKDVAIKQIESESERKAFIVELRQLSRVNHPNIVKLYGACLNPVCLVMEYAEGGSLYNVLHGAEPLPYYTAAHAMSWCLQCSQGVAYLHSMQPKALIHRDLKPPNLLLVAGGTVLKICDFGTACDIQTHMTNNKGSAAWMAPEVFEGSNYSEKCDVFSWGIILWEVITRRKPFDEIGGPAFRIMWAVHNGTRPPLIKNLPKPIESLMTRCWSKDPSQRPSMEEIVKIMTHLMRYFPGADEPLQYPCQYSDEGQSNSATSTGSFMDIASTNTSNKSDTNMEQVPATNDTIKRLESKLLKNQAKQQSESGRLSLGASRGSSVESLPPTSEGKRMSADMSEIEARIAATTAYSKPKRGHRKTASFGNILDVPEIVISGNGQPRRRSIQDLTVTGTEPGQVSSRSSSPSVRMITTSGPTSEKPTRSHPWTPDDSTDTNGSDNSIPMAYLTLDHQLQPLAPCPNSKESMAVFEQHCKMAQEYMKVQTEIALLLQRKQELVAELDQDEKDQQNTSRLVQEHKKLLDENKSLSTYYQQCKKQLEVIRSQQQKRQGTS
The experiment in a line: Selectivity interaction (KinomeScan (DiscoverX)) EUB0001079a MAP3K7. The conditions noted are these: at 1 µM.

Assay [7] addresses Proto-oncogene tyrosine-protein kinase Src (Homo sapiens, UniProt P12931). Put plainly: Selectivity interaction (ActivX KiNativ screen (ex vivo kinase selectivity in human PBMCs)) EUB0001619a SRC. To be noted: PBMC, at 1 µM. Format: cell-based.
The target of assay [8] is Mitogen-activated protein kinase kinase kinase 4 (Homo sapiens) (UniProt Q9Y6R4). The experiment in a line: Selectivity interaction (KinomeScan (DiscoverX)) EUB0001619a MAP3K4. The conditions noted are these: at 1 µM.
Assay [9] deals with Alpha-1A adrenergic receptor (Homo sapiens, UniProt P35348). The experiment in a line: Selectivity interaction (Alpha1A calcium flux assay ) EUB0000877a ADRA1A. In general terms: A change in cytosolic calcium serves as a functional read-out for many receptors and channels.
Assay [10] has as its target Mitogen-activated protein kinase 14 (Homo sapiens, UniProt Q16539). Put plainly: Selectivity interaction (ActivX KiNativ screen (kinase selectivity in THP-1 cell lysates)) EUB0000639a MAPK14. The class given is subcellular. To be noted: lysate, at 0.04 µM.
Assay [11] has as its target Casein kinase I isoform alpha (Homo sapiens, UniProt P48729). Put plainly: Selectivity interaction (ActivX KiNativ screen (kinase selectivity in THP-1 cell lysates)) EUB0000639a CSNK1A1. Format: subcellular. The conditions noted are these: lysate, at 0.01 µM.
For assay [12], the target named is T2, Testis-specific serine/threonine-protein kinase 1 (Homo sapiens) (UniProt Q9BXA7).
T2 sequence (whole entry): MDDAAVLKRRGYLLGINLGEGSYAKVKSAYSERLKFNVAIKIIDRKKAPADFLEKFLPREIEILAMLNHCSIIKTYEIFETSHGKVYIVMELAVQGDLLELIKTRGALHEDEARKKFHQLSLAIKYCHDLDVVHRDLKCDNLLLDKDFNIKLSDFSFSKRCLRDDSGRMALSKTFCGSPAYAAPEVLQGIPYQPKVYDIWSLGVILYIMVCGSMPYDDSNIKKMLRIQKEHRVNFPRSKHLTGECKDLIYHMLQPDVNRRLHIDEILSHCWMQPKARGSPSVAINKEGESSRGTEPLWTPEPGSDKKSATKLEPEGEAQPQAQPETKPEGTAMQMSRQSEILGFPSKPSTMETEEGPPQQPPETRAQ
To be noted: at 10 µM.

The target of assay [13] is Serine/threonine-protein kinase NIM1 (Homo sapiens, UniProt Q8IY84). Put plainly: Selectivity interaction (KinomeScan (DiscoverX)) EUB0001049a NIM1K. The conditions noted are these: at 1 µM.
The target in assay [14] is T3, Serine/threonine-protein kinase RIO1 (Homo sapiens) (UniProt Q9BRS2).
T3 sequence (whole entry): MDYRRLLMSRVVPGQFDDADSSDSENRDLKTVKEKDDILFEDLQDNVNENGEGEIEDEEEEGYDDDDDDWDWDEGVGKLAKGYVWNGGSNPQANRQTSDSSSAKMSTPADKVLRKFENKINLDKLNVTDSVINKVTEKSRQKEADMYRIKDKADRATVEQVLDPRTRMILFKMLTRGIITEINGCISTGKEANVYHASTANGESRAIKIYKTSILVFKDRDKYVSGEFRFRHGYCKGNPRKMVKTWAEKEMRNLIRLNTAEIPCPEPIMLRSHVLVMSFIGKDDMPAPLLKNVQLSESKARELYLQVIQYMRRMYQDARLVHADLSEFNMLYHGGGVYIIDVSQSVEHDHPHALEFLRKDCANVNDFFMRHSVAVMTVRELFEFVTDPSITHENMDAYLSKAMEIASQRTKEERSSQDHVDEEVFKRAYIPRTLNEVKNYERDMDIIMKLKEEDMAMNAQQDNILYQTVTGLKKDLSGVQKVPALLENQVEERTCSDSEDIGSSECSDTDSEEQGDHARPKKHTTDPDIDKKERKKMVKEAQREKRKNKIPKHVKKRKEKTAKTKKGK
The experiment in a line: Selectivity interaction (KinomeScan (DiscoverX)) EUB0001049a RIOK1. To be noted: at 1 µM.

In assay [15] the target is Serine/threonine-protein kinase PLK3 (Homo sapiens, UniProt Q9H4B4). Put plainly: Selectivity interaction (ProQinase) EUB0000171b PLK3.
The target in assay [16] is BDNF/NT-3 growth factors receptor (Homo sapiens) (UniProt Q16620). Put plainly: Selectivity interaction (Upstate Kinase Profiler service (Millipore)) EUB0000056c NTRK2. To be noted: at 1 µM.
Chain of BDNF/NT-3 growth factors receptor (Homo sapiens) (Q16620 32-822 limits assumed): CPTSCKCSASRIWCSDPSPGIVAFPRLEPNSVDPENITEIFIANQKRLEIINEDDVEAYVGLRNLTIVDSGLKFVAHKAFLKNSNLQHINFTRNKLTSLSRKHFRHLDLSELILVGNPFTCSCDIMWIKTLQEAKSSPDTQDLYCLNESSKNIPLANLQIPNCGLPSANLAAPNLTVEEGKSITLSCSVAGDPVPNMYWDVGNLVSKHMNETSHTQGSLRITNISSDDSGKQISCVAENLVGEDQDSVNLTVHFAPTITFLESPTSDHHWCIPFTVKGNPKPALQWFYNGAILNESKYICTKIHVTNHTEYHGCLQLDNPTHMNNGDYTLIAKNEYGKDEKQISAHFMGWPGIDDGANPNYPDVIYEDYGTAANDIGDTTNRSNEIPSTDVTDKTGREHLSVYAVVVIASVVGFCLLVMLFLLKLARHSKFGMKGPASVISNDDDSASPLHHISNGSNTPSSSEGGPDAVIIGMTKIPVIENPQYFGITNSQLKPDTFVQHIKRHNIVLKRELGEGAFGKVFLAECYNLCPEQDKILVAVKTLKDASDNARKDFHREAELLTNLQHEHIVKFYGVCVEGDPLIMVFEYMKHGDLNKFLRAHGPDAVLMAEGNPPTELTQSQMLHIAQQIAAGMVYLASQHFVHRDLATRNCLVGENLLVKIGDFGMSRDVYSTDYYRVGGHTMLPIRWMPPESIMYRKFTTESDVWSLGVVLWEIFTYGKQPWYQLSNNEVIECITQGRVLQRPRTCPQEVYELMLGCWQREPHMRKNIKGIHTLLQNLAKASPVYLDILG

Chain of Serine/threonine-protein kinase PLK3 (Q9H4B4 whole entry, looked up): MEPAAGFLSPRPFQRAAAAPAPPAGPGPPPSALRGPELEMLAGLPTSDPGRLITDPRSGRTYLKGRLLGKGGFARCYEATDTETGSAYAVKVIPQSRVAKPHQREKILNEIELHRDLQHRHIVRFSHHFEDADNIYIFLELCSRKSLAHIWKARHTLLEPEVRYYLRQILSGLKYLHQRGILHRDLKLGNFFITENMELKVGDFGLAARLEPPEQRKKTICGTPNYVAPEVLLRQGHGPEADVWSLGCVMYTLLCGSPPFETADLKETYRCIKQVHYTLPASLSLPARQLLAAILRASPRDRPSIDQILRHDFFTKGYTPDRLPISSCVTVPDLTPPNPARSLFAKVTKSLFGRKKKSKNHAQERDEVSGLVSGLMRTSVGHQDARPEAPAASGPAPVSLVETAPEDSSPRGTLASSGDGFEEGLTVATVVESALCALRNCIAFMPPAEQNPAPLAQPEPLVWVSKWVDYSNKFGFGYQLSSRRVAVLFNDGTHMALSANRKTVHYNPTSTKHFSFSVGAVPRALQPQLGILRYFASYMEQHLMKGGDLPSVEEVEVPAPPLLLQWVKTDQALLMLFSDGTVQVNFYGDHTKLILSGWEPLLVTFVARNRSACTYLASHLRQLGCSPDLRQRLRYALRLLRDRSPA
Chain of Dual specificity mitogen-activated protein kinase kinase 1 (Q02750 whole entry): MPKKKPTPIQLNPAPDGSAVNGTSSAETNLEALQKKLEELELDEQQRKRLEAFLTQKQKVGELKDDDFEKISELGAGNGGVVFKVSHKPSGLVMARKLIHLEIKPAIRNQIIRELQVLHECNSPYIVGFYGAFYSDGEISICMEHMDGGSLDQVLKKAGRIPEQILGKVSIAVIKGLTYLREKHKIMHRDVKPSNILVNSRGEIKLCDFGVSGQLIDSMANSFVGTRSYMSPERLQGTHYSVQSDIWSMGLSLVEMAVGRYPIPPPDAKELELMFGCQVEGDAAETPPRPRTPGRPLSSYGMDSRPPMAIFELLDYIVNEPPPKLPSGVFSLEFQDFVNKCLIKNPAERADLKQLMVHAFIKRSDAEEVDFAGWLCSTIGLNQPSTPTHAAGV
Chain of Serine/threonine-protein kinase NIM1 (Q8IY84 whole entry): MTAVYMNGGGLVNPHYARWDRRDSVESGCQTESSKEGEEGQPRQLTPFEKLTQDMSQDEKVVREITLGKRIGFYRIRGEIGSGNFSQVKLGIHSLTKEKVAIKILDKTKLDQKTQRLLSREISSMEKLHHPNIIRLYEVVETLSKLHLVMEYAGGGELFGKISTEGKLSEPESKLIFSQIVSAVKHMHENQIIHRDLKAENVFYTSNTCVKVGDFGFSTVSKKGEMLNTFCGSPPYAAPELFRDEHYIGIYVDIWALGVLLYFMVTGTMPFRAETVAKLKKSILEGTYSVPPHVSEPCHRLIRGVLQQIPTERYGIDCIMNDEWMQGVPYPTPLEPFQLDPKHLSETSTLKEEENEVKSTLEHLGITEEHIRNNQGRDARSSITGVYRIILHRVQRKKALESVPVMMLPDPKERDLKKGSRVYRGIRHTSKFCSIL
Chain of Proto-oncogene tyrosine-protein kinase Src (P12931 2-536 limits assumed): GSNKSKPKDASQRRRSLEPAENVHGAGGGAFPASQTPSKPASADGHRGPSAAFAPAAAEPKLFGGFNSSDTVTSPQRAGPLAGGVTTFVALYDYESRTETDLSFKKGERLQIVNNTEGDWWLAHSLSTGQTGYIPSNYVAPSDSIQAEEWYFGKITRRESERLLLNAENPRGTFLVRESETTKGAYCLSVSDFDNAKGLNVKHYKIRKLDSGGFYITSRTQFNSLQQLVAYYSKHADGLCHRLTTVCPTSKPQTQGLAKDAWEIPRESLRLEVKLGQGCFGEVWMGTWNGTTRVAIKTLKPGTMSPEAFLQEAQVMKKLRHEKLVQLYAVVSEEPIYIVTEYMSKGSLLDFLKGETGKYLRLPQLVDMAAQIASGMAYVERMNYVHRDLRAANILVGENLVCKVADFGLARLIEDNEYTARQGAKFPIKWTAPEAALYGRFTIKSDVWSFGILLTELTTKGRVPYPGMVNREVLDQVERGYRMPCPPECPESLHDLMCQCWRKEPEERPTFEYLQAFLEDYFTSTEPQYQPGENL
Chain of Alpha-1A adrenergic receptor (P35348 whole entry): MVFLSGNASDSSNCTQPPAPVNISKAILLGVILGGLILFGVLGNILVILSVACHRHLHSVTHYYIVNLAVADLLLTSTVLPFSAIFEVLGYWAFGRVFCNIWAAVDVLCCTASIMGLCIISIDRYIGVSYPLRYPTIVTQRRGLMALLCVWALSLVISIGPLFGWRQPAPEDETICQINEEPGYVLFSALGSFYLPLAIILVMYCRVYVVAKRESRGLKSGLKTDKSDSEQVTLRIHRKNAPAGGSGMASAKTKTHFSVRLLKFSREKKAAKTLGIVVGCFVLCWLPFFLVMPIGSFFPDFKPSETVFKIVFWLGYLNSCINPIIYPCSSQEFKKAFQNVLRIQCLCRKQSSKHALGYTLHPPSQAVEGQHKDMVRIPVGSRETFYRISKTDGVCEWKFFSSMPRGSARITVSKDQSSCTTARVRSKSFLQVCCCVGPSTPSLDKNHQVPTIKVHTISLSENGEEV
Chain of Acylglycerol kinase, mitochondrial (Homo sapiens) (Q53H12 whole entry): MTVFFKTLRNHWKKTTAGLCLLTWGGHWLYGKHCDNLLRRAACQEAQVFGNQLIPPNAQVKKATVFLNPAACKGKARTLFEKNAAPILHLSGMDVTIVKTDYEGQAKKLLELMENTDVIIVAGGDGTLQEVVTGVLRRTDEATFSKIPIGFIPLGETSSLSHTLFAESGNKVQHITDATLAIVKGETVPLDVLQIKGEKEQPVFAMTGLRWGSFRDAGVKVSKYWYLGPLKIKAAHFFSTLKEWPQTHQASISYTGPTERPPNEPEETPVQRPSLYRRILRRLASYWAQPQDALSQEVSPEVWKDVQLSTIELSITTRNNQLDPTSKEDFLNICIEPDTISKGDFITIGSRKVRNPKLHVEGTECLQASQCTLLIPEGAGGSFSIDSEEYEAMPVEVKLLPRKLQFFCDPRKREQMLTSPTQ
Chain of Casein kinase I isoform alpha (P48729 2-337 limits assumed): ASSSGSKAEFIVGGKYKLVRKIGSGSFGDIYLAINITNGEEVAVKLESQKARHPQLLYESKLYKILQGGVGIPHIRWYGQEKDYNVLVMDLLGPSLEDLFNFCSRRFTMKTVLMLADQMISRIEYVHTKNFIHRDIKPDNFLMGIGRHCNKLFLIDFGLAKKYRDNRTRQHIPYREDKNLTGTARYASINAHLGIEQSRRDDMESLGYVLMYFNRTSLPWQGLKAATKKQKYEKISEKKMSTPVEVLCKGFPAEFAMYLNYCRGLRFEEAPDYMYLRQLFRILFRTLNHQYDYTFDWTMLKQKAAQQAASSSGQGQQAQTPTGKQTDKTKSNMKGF
Chain of High affinity nerve growth factor receptor (P04629 33-796 limits assumed): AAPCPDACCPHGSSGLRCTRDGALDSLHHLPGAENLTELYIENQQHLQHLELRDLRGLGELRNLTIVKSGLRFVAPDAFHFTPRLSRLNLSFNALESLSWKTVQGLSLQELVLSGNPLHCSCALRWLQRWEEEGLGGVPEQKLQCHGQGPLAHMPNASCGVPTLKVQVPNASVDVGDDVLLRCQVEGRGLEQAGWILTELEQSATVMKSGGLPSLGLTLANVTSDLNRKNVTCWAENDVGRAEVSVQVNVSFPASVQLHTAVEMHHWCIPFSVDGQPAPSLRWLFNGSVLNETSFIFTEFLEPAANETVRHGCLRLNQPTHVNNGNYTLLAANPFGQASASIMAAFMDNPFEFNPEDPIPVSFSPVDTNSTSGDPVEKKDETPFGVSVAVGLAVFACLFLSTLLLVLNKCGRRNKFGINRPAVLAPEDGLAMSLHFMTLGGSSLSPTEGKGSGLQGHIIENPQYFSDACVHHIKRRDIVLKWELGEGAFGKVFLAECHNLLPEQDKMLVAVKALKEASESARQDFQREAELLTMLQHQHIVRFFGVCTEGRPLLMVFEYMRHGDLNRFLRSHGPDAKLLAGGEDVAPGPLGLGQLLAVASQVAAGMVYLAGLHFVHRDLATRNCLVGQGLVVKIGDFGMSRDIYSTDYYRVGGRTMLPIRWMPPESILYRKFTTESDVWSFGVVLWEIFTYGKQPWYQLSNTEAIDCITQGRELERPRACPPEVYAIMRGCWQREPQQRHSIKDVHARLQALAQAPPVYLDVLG

Regarding `C=CC(=O)Nc1ccc(C(=O)Nc2[nH]nc3c2CN(C(=O)N[C@H](CN(C)C)c2ccccc2)C3(C)C)cc1`, the % of engagement in assay [1] was -3.9%.
With `CNC(=O)Nc1ccc(-c2nc(N3CC4CCC(C3)O4)c3cnn(C4CCC5(CC4)OCCO5)c3n2)cc1`, the % of inhibition in assay [2] was determined as 3%.
With `Cc1cc([C@@H](C)Nc2ccccc2C(=O)O)c2nc(N3CCOCC3)cc(=O)n2c1` [AZD-6482], in assay [3], the % of control was found to be 100%.
The molecule `O=C(NOC[C@H](O)CO)c1ccc(F)c(F)c1Nc1ccc(I)cc1F` gave a % of control in [4] of 80%.
Turning to `COc1cc(N(C)c2ccnc3ccc(C(F)(F)F)cc23)cc(OC)c1OC`, the % binding in assay [5] came out at 96%.
`Nc1cnc(N2CCc3cc(S(=O)(=O)Nc4c(F)cc(Cl)cc4F)cc(N4CCCC4=O)c32)nc1` [TP-020n]: the % of control in assay [6] was determined as 100%.
Regarding `N#Cc1cccc(-c2c[nH]c3ncnc(N4CCOCC4)c23)c1`, the % of inhibition in assay [7] is -2%. Further, the % of control in assay [8] was 100%.
`CCC(=O)N1CC[C@H](Nc2ncnc3c2CN(c2cnc(OC)c(C(F)(F)F)c2)CC3)C1` [LENIOLISIB]: the IC50 in [9] is over 30 µM.
Consider `CC[C@@H]1[C@H](F)C(=O)N[C@@H]1COc1nccc2cc(C(N)=O)c(OC)cc12` [ZIMLOVISERTIB], for which the % of inhibition in assay [10] turned out to be 5.4%; in assay [11], 2.1%.
`CCN(CC)CCCCNc1ncc2cc(-c3cc(OC)cc(OC)c3)c(NC(=O)NC(C)(C)C)nc2n1` gave a % of control in assay [12] of 100%.
Consider `COc1cc(Nc2nc(C)cc(-c3cnn4nc(OC)ccc34)n2)cc(C(F)(F)F)c1`, for which the % of control in [13] was found to be 94%; in [14] it was 89%.
As to `C=CC(=O)Nc1cccc(C(=O)Nc2ccc(Nc3cc(-c4[nH]c(SC)nc4C)ccn3)cc2)c1`, the % of control in assay [15] (at 1 µM) is 103%; in assay [15] (at 5 µM) it was 75%.
Turning to `Cc1ccc(-c2ccc3c(ccc4sc5c(c43)NC[C@@H](C)NC5=O)n2)cn1`, the % of inhibition in assay [16] was -8%.

In general, IC50 refers to the concentration that gives 50% inhibition.
